Measurements from article PMC11259064, “Enhanced binding of guanylated poly(A) RNA by the LaM domain of LARP1” (RNA Biology, 2024).
Where “and” joins values, the source holds several entries; their conditions need not be identical. Equal values may be shown once. One block for each compound: values may come before it.

Columns and labels:
[1] = target: T1, human LARP1 LaM domain (residues 323–410) (Homo sapiens, UniProt Q6PKG0); assay: Isothermal titration calorimetry (ITC) of RNA ligands binding LARP1 (323-410); conditions: for Rel. aff. (affinity relative to AAAAAA): Figure 2B, higher = tighter binding than A6; for binding to the LaM domain by ITC (in words): LaM 40 μM in cell, cyclic dinucleotide 730-860 μM in syringe
T1 construct: human LARP1 LaM domain (residues 323–410); made in house; host or cells: E. coli
Procedure: ITC experiments were performed on the VP-ITC titration calorimeter (Malvern Instruments Ltd) except where noted. […] All experiments were carried out at 20°C with 29 injections of 10 µl. Results were analysed using ORIGIN software (MicroCal) and fitted to a binding model with a single set of identical sites, except where noted.

LARP1 323-410 Q333A [2] = target: T2, LARP1 323-410 Q333A (Homo sapiens, UniProt Q6PKG0); assay: ITC of RNA ligands binding LARP1 323-410 Q333A; conditions: Q333A mutant; LaM 30 (cell), RNA 300-600 (syringe)
T2 construct: ITC Data Collection and Analysis for LARP1 323-410 Q333A; His-tag; made in house; host or cells: E. coli
Procedure: (§1) ITC experiments were performed on the VP-ITC titration calorimeter (Malvern Instruments Ltd) except where noted. The syringe was loaded with 300 µM RNA sample, while the sample cell contained 20–30 µM LARP1 (323–410) sample. All experiments were carried out at 20°C with 29 injections of 10 µl. Results were analysed using ORIGIN software (MicroCal) and fitted to a binding model with a single set of identical sites, except where noted.
(§2) Table S3. ITC Data Collection and Analysis for LARP1 323-410 Q333A
(§3) RNA Kd, nM relative to DH, kcal mol-1 DS, cal mol-1 K-1 Conc., µM
(§4) 1Data acquired on iTC200 (Malvern Instruments Ltd).

LARP1 323-410 Q333A [3] = target: T3, LARP1 323-410 Q333A (Homo sapiens, UniProt Q6PKG0, Q410A); assay: ITC of RNA ligands binding LARP1 323-410 Q333A; conditions: Q333A mutant
T3 construct: ITC Data Collection and Analysis for LARP1 323-410 Q333A; His-tag; made in house; host or cells: E. coli
Procedure: as §1, §2, §3, §4

[4] = target: T1, human LARP1 LaM domain (residues 323–410); conditions: ITC of RNA oligonucleotides; cited from earlier work
[5] = target: T1, human LARP1 LaM domain (residues 323–410); assay: NMR titration of single nucleotides into 15N-labelled LARP1 (323-410), chemical shift changes; type: binding; conditions: for Kd: 0.1 mM 15N-LARP1 (323-410), 10 mM MES pH 6.3, 100 mM NaCl, 25°C, fit accounts for bound ligand, two nucleotide binding sites, read-out: Kd, binding affinity estimated from chemical shift change (I364 amide) as a function of nucleotide concentration
Procedure: We carried out NMR titrations with single nucleotides binding to^15N-labelled LARP1 LaM to isolate the individual nucleotide interactions (Figure 1A). The addition of nucleotides caused spectral changes similar to those observed with the hexamer A6 but with smaller shifts and fewer signals affected (Suppl. Figure S1). […] The signals with the largest changes were the amide of Ile364 and side chain amides of Gln333.
At 200 µM, 5´-GMP shifted the Gln333 signal twice as much as 5´-AMP. […] We used the size of the chemical shift change as a function of nucleotide concentration to estimate binding affinities (Figure 1C). […] This had the advantage that it also provided an estimate of the binding stoichiometry. For 5´-GMP, the stoichiometry was measured to be 2.04 with an affinity of 40 µM. […] This is at odds with the affinities of oligonucleotides measured by isothermal titration calorimetry (ITC).
NMR samples were exchanged into 10 mM MES pH 6.3, 100 mM NaCl, 1 mM TCEP. For NMR titrations, nucleotides were added to 0.1 mM^15N-labelled LARP1 (323–410) to final molar ratios of 5:1. All NMR experiments were performed at 25°C using a Bruker 600 MHz spectrometer. NMR spectra were processed using NMRPipe and analysed with SPARKY [51]. Binding affinities were measured by fitting the observed chemical shift changes accounting for bound ligand with a stoichiometry of two nucleotide binding sites.

[6] = ITC, 20°C, LaM 20-30 µM in cell, RNA 300 µM in syringe, single set of identical sites, read-out: Kd
[7] = ITC, 20°C, LaM in cell, RNA in syringe
[8] = Table S1, LaM in cell, RNA in syringe
[9] = ITC, 20°C, LaM in cell, RNA in syringe, read-out: Kd
[10] = reversed titration: RNA 15 (cell), LaM 300 (syringe)

Kd [1, 6]: 0.29 µM
ΔH [1, 7]: -19.4 kcal/mol
ΔS [1, 7]: -36.2 cal mol^-1 K^-1
Affinity relative to A6 [1, 8]: 1.16
Compound: 5´-APAPAPAPAPSA-3´ [(RP)-AAAAAPSA]

ΔH [1, 7]: -23.1 kcal/mol
ΔS [1, 7]: -57.1 cal mol^-1 K^-1
Kd [1, 9]: 17 µM
fold lower affinity of the (SP)-phosphorothioate ([1]; ITC, Figure 5D, compared with the (RP)-phosphorothioate): 60 fold
Affinity relative to A6 [1, 8]: 68
Compound: 5´-APAPAPAPAPSA-3´ [(SP)-AAAAAPSA]

ΔH [1, 7]: -23.9 kcal/mol
ΔS [1, 7]: -56.2 cal mol^-1 K^-1
Kd [1, 9]: 3.1 µM and ~3 µM
Affinity relative to A6 [1, 8]: 12.4
Compound: 5´-APG-3´ [AG]

Kd ([1]; ITC, 20°C, LaM 20-30 µM in cell, RNA 300 µM in syringe, single set of identical sites): not fitted
Kd [1, 7]: Not fittable
Affinity relative to A6 ([1]; Table S1, reversed titration: RNA 15 (cell), LaM 300 (syringe)): 11.2
Kd ([1]; reversed titration: GG (15 µM) in cell + LaM (300 µM) in syringe, read-out: Kd): 2.8 µM and ~3 µM
ΔH [1, 10]: -34.1 kcal/mol
ΔS [1, 10]: -91.1 cal mol-1 K-1
Compound: 5´-GPG-3´ [GG]

Kd [1, 6]: 1.8 ± 0.1 µM
ΔH [1, 7]: -21.4 kcal/mol
ΔS [1, 7]: -46.6 cal mol^-1 K^-1
Affinity relative to A6 [1, 8]: 7.2
Kd (LARP1 323-410 Q333A [2]): 100 ± 30 µM
ΔH (LARP1 323-410 Q333A [3]): -11.0 kcal/mol
ΔS (LARP1 323-410 Q333A [3]): -19.2 cal mol-1 K-1
Compound: 5´-UPUPUPUPUPU-3´ [UUUUUU]
fold weaker binding affinity than A6 [4]: 11 fold

Ile364 chemical shift change (in words) ([5]; NMR titration): not appreciably shifted
shift of the Ile364 peak, fold smaller than with 5´-AMP ([5]; NMR titration): 30 fold
Compound: Nc1ncnc2c1ncn2[C@@H]1O[C@H](CO)[C@@H](OP(=O)(O)O)[C@H]1O [3'-AMP, 3´-AMP]

Kd [5]: 130 µM
Compound: Nc1ncnc2c1ncn2[C@@H]1O[C@H](COP(=O)(O)O)[C@@H](O)[C@H]1O [5'-AMP, 5´-AMP]

Kd [5]: 40 µM
shift of the Gln333 signal relative to 5´-AMP ([5]; at 200 µM nucleotide): twice as much
binding stoichiometry ([5]; from fit of NMR chemical shift changes): 2.04
Compound: Nc1nc2c(ncn2[C@@H]2O[C@H](COP(=O)(O)O)[C@@H](O)[C@H]2O)c(=O)[nH]1 [5'-GMP, 5´-GMP]

binding to the LaM domain by ITC (in words) [1]: sub-micromolar affinity
Affinity relative to A6 (site 1) ([1]; Table S1): 1.2
Affinity relative to A6 (site 2) ([1]; Table S1): 220
ΔH (site 1) ([1]; Table S1): 0 kcal/mol
ΔH (site 2) ([1]; Table S1): 2.0 kcal/mol
ΔS (site 1) ([1]; Table S1): 29.8 cal mol-1 K-1
ΔS (site 2) ([1]; Table S1): 26.5 cal mol-1 K-1
Kd ([1]; Table S1, LaM 40 (cell), ligand 730-750 (syringe), read-out: Kd (site 1)): 0.3 ± 0.3 µM
Kd ([1]; Table S1, LaM 40 (cell), ligand 730-750 (syringe), read-out: Kd (site 2)): > 10 µM
Kd ([1]; second site, fit with two independent sets of sites, LaM 40 μM + ligand 730-750 μM, read-out: Kd2): 54 µM
Compound: Nc1nc2c(ncn2[C@@H]2O[C@@H]3CO[P@](=O)(O)O[C@H]4[C@@H](O)[C@H](n5cnc6c(=O)[nH]c(N)nc65)O[C@@H]4CO[P@](=O)(O)O[C@H]3[C@H]2O)c(=O)[nH]1 [cyclic-di-GMP, Cyclic-di-GMP]

The next lines start with the compound.

Compound: 5´-APAPAPAPAPA-3´ [AAAAAA]
Rel. aff. (affinity relative to AAAAAA) [1]: 1.0
Kd [1, 6]: 0.25 µM
ΔH [1, 7]: -19.9 kcal/mol
ΔS [1, 7]: -37.6 cal mol^-1 K^-1
Affinity relative to A6 [1, 8]: 1

Compound: 5´-APAPAPAPAPG-3´ [AAAAAG]
Rel. aff. (affinity relative to AAAAAA) [1]: 1.9
Kd [1, 6]: 0.13 ± 0.02 µM
ΔH [1, 7]: -27.5 kcal/mol
ΔS [1, 7]: -62.3 cal mol^-1 K^-1
Kd (LARP1 323-410 Q333A [2]): 19 ± 2 µM
ΔH (LARP1 323-410 Q333A [3]): -27.8 kcal/mol
ΔS (LARP1 323-410 Q333A [3]): -73.2 cal mol-1 K-1

Compound: 5´-APAPAPAPGPA-3´ [AAAAGA]
Rel. aff. (affinity relative to AAAAAA) [1]: 3.2
ΔH [1, 7]: -29.5 kcal/mol
ΔS [1, 7]: -68.0 cal mol^-1 K^-1
Affinity relative to A6 [1, 8]: 0.32
Kd (LARP1 323-410 Q333A [2]): 10 ± 6 µM
ΔH (LARP1 323-410 Q333A [3]): -10.2 kcal/mol
ΔS (LARP1 323-410 Q333A [3]): -11.9 cal mol-1 K-1

Compound: 5´-APAPAPGPAPA-3´ [AAAGAA]
Rel. aff. (affinity relative to AAAAAA) [1]: 1.8
Kd [1, 6]: 0.14 ± 0.02 µM
ΔH [1, 7]: -27.7 kcal/mol
ΔS [1, 7]: -63.2 cal mol^-1 K^-1
Affinity relative to A6 [1, 8]: 0.56

Compound: Nc1nc2c(ncn2[C@@H]2O[C@@H]3COP(=O)(O)O[C@H]4[C@@H](O)[C@H](n5cnc6c(N)ncnc65)O[C@@H]4COP(=O)(O)O[C@H]3[C@H]2O)c(=O)[nH]1 [3',3'-cGAMP, 3‘,3’-cGAMP]
Kd [1]: 0.7 ± 0.3 µM
binding to the LaM domain by ITC (in words) [1]: sub-micromolar affinity
Affinity relative to A6 (site 1) ([1]; Table S1): 2.8
Affinity relative to A6 (site 2) ([1]; Table S1): 440
ΔH (site 1) ([1]; Table S1): 0 kcal/mol
ΔH (site 2) ([1]; Table S1): 4.8 kcal/mol
ΔS (site 1) ([1]; Table S1): 28.3 cal mol-1 K-1
ΔS (site 2) ([1]; Table S1): 34.4 cal mol-1 K-1
Kd ([1]; read-out: Kd2, second site, fit with two independent sets of sites, LaM 40 μM + ligand 730-750 μM): 110 µM
Kd ([1]; read-out: Kd (site 2), Table S1, LaM 40 (cell), ligand 730-750 (syringe)): > 10 µM

Compound: Nc1ncnc2c1ncn2[C@@H]1O[C@H](COP(=O)(O)O)[C@@H](OP(=O)(O)O)[C@H]1O [3',5'-ADP, 3´,5´-ADP]
Gln333 signal change (in words) ([5]; NMR titration): broadened the Gln333 signal beyond detection
Ile364 chemical shift change (in words) ([5]; NMR titration): small shift
